Data on twelve compounds can be found in patent publication US7745570B2, “PH dependent adhesive peptides” (Kansas State University Research Foundation, priority 2005, dated 2010).

Entries after “also recorded” stand apart in the source; their conditions may differ. Where no end group is shown, it is not given here.

For data set [1] the following is noted: Wimley and White Hydrophobicity Scale; cited from earlier work.
The conditions of data set [2]: modified Wimley-White scale, side chain values; cited from earlier work.
The nature of data set [3]: Viscosity of peptide solutions, Brookfield viscometer. The data set is classed as physicochemical. The settings on record: peptide 4%, 20 rpm, RT. The protocol: Viscosity: Viscosity of peptides at different pH was measured in a Brookfield RVDV-III 5^+ viscometer (Middleboro, Mass.). All the measurements were taken at 2.5 minute intervals using 8 mL samples at ambient temperature with a spindle SC4-21 operating at 20 rpm. Five data points were averaged for each reported value.

Data set [4] can be described thus: Solubility and ionisation of peptides at the test pH values. The data set is classed as physicochemical. The settings on record: for Solubility: aqueous peptide solutions at pH 2.2, 6.8, 12.0.
Data set [5] can be described thus: MALDI mass spectrometry of dried/hot-pressed peptide for hydrolysis of peptide bonds. The settings on record: 4% peptide pH 12, dried at RT or 130° C. without pressure or 130° C. with pressure. The format is physicochemical. The protocol:
The same K3h9K3 samples used in the FTIR studies were analyzed by matrix assisted, laser desorption mass spectrometry. At elevated pH and temperature, the spontaneous hydrolysis of peptide bonds could occur. Dried samples taken from glass slides treated with 4% peptide solutions at pH 12 and dried at either room temperature or 130° C. without pressure as well as dried at 130° C. with pressure were dissolved in acetonitrile containing matrix and transferred to mass spectral target slides.

Data set [6] is described as follows: Circular dichroism at 25° C. to 75° C. (conformational stability). The settings on record: 250 μM, pH 12, 25° C. to 75° C. The data set is classed as physicochemical. The method, then: Circular Dichroism Spectra: The data set out in FIG. 4 were collected according to the following protocol. The circular dichroic spectra were recorded on a J-720 (Jasco, Japan) spectropolarimeter with a Neslab RTE-111M circulator using a 1.0 mm quartz cuvette from 260 to 180 nm. The spectra are an average of five scans recorded at a rate of 20 nm/min with a 0.2 nm step interval. For circular dichroism measurements, 1 mL samples of synthetic peptide were prepared with a different pH buffer solution. The following buffers were used: 60 mM glycine, 60 mM NaCl, 40 mM HCl, pH 2.2; 50 mM glycine, 50 mM NaCl, 0.2 mM NaOH, pH 6.8; and 45 mM glycine, 45 mM NaCl, 55 mM NaOH, pH 12. The final peptide concentration was 250 μM. All spectra were corrected by subtracting the baseline of the buffer solution recorded under the same condition. Unless otherwise noted, spectra were recorded at room temperature. The CD absorbances were expressed as the mean residue ellipticity in units of degrees cm^2 dmol^−1. Temperatures were controlled with a refrigerated circulator bath (Neslab RTE-111M). Temperatures were controlled between 25° C. to 75° C.
Background: Circular dichroism is the unequal absorption of left and right circularly polarised light.

`C[C@H](N)C(=O)O` [Ala, alanine]: in data set [1], the “ΔG for transfer from water to organic phase” value (from here on “ΔG for transfer from water”) was 0.50 kcal/mol. In data set [2], the ΔGresidue value was -0.5 kcal/mol.
For the compound `NCC(=O)O` [Gly], the “ΔG for transfer from water” value in data set [1] was 1.15 kcal/mol.
Take `CSCC[C@H](N)C(=O)O` [Met]: the “ΔG for transfer from water” value in data set [1] is -0.67 kcal/mol.
`N[C@@H](Cc1ccccc1)C(=O)O` [Phe]: the “ΔG for transfer from water” value in data set [1] is -1.71 kcal/mol.
Turning to `N[C@@H](CO)C(=O)O` [Ser], in data set [1], the “ΔG for transfer from water” value is 0.46 kcal/mol.
`CC(C)[C@H](N)C(=O)O` [Val, valine]: the “ΔG for transfer from water” value in data set [1] was -0.46 kcal/mol. In addition, the ΔGresidue value in data set [2] was 0.46 kcal/mol.
Regarding “EEE-FLIVIGSII-KKK (EEEFLIVIGSIIKKK) [Peptide E3h9K3]”, the Viscosity in data set [3] (pH 2.2) was 190 mPa · s; in data set [3] (pH 6.8), 245 mPa · s; in data set [3] (pH 12), 20 mPa · s.
On to “EEEFLIVIGSIIEEE-OH [Peptide E3h9E3, EEE-FLIVIGSII-EEE]”, for which the Solubility result in data set [4] is “insoluble below and somewhat above its pI; also recorded: insoluble at the two lower pH values”. In addition, the Viscosity in data set [3] (pH 12) is on record as 20 mPa · s.
As for HHHFLIVIGSIIHHH [Peptide H3h9H3], in data set [4], the Solubility entry is “insoluble at all pH values”.
As to “KKK-FLIVIGSII-EEE (KKKFLIVIGSIIEEE) [Peptide K3h9E3]”, the Viscosity was 210 mPa · s in data set [3] (pH 2.2), 305 mPa · s in data set [3] (pH 6.8) and 20 mPa · s in data set [3] (pH 12).
Turning to “KKK-FLIVIGSII-KKK (KKKFLIVIGSIIKKK) [Peptide K3h9K3]”, the Viscosity in data set [3] (pH 2.2) is listed as 20 mPa · s; in data set [3] (pH 6.8), 20 mPa · s; in data set [3] (pH 12), 290 mPa · s. For the same compound, in data set [5], the “Peptide integrity (hydrolysis of peptide bonds)” value is recorded as “intact monomer however no detectable amounts of fragmented peptide”. The “Effect of temperature on CD spectra (conformation)” value in data set [6] is given as “did not alter the CD spectra”.
Turning to RRRFLIVIGSIIRRR [Peptide R3h9R3], the Ionisation state entry in data set [4] (pH 12.0) was “not fully ionized”.
